In US20240174723A1, “STAPLED ANTIMICROBIAL PEPTIDES (STAMPS) AND USES THEREOF” (Lytica Therapeutics, Inc., priority 2021, published 2024):
Converted amounts (≈) assume the structure as drawn. Positions of bridges follow the written chain, without caps; N, C: chain ends. Non-standard residues stand in square brackets, D forms with d. Residues, ends and D or L forms follow the SMILES beside them. Phe(4-CF3) = N[C@@H](Cc1ccc(C(F)(F)F)cc1)C(=O)O; Phe(4-F) = N[C@@H](Cc1ccc(F)cc1)C(=O)O; S5 = C=CCCC[C@](C)(N)C(=O)O; Dab = NCC[C@H](N)C(=O)O; Dap = NC[C@H](N)C(=O)O

Assays:
P. aeruginosa = assay type: cell-based, Pseudomonas aeruginosa
Method in brief: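 MIC taken as lowest peptide concentration with no visible growth after 20-24 h at 37 °C. Peptide serial dilutions from water stocks met P. aeruginosa inoculum (5×10^5 CFU/ml final) in MHB or MHB II, per a CLSI-adapted microbroth protocol.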

E. coli = assay type: cell-based, Escherichia coli
Method in brief: (§1)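 MIC by CLSI-adapted microbroth dilution; MHB or MHB II; inoculum 5×10^5 CFU/ml final; 20-24 h, 37 °C; endpoint = no visible growth.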

in vitro [1] = assay type: cell-based; settings: human
Protocol: Cell culture: RPTEC were maintained in MEM media supplemented with growth factors. HEPG2 cell line was maintained in Eagle's Minimum Essential Medium (EMEM) supplemented with fetal bovine serum to a final concentration of 10%.
90 minute cytotoxicity assay: Cells were plated in a 96-well format, and after overnight incubation, media was replaced with fresh media. Serial dilutions of StAMPs from a 5 mg/mL water stock, or vehicle, were added to the cells in a final volume of 100 μl. After incubating at 37° C. for 90 min, 50 μl of cell culture media was transferred to a clear 96-well plate, incubated with 50 μl of lactate dehydrogenase (LDH) assay reagent for 10 min, and absorbance measured at 490 nm on a microplate reader.
Renal toxicity was measured after 90 minutes of incubation, while liver toxicity was measured after 48 hours of incubation with StAMPs. N/A=not tested. The following apply to all peptides (i.e., StAMPs) listed in Tables A-C: Crosslinks (X^1—X^2 and X^3—X^4): (alk); N-terminus: —NH2; C-terminus: amidated with —NH2; counterion: Cl^−. The following apply to all peptides (i.e., StAMPs) listed in Table D: Crosslinks (X^1—X^2 and X^3—X^4): (alk); N-terminus: —NH2; C-terminus: as shown in table; counterion: Cl^−.
StAMP Micelle Formulation: DSPE-MPEG(2000) was suspended in buffered saline at 50-100 mg/mL overnight. StAMP stock solutions at 5-20 mg/mL in buffered saline were prepared and equal volumes of micelle and StAMP stock solution were mixed at the desired StAMP:Lipid ratio. Suspensions were allowed to sit for 5-10 minutes at room temperature before being used in in vitro and in vivo assays.
In Table E, the StAMP is StAMP 4 (Table A) and “Lipid”=DSPE-MPEG(2000).

A. baumannii = assay type: cell-based, Acinetobacter baumannii
Method in brief: as §1

K. pneumoniae = assay type: cell-based, Klebsiella pneumoniae
Method in brief: as §1

S. aureus = assay type: cell-based, Staphylococcus aureus
Method in brief: as §1

in vitro [2] = assay type: cell-based; settings: human, Inhibitory Concentration at 50% Cytotoxicity (IC50) Human Liver Cells (HepG2)
Method in brief: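 Cytotoxicity read by CellTiter-Glo luminescence after 48 h at 37 °C exposure to serially diluted StAMPs or vehicle. HepG2 cells were grown in EMEM plus 10% FBS and given 4 h to attach before dosing; peptides came from a 5 mg/mL aqueous stock.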

SMILES | Minimum Inhibitory Concentration (MIC) P. aeruginosa (P. aeruginosa) | Minimum Inhibitory Concentration (MIC) E. coli (E. coli) | IC50 at 90 min (in vitro [1]) | Minimum Inhibitory Concentration (MIC) A. baumannii (A. baumannii) | Minimum Inhibitory Concentration (MIC) K. pneumoniae (K. pneumoniae) | Minimum Inhibitory Concentration (MIC) S. aureus (S. aureus) | IC50 at 48 hours (in vitro [2])
CC(C)[C@@H]1NC(=O)[C@H](C(C)C)NC(=O)[C@@](C)(NC(=O)[C@H](C)NC(=O)[C@H](CCCCN)NC(=O)CNC(=O)[C@H](Cc2ccc(F)cc2)NC(=O)[C@H](CCCCN)NC(=O)[C@H](CCCCN)NC(=O)[C@H](CCCCN)NC(=O)[C@H](CCCCN)NC(=O)[C@H](Cc2c[nH]cn2)NC(=O)[C@]2(C)CCCC=CCCC[C@](C)(NC(=O)CN)C(=O)NCC(=O)N[C@@H](CCCCN)C(=O)N[C@@H](Cc3ccc(F)cc3)C(=O)N2)CCCC=CCCC[C@@](C)(C(=O)N[C@@H](C)C(=O)N[C@@H](CCCCN)C(=O)N[C@@H](CCCCN)C(N)=O)NC(=O)[C@H](CCC(=O)O)NC1=O [compound 29] (H-G[S5]GK[Phe(4-F)][S5]HKKKK[Phe(4-F)]GKA[S5]VVE[S5]AKK-NH2; staple 2-6, 16-20) | 4 µg/mL | 2 µg/mL | 86 µg/mL (≈ 32.4 µM) | 2 µg/mL | 4 µg/mL | >64 µg/mL | –
CC(C)[C@@H]1NC(=O)[C@H](C(C)C)NC(=O)[C@@](C)(NC(=O)[C@H](C)NC(=O)[C@H](CCCCN)NC(=O)CNC(=O)[C@H](Cc2ccc(C(F)(F)F)cc2)NC(=O)[C@H](CCCCN)NC(=O)[C@H](CCCCN)NC(=O)[C@H](CCCCN)NC(=O)[C@H](CCCCN)NC(=O)[C@H](Cc2c[nH]cn2)NC(=O)[C@]2(C)CCCC=CCCC[C@](C)(NC(=O)CN)C(=O)NCC(=O)N[C@@H](CCCCN)C(=O)N[C@@H](Cc3ccc(C(F)(F)F)cc3)C(=O)N2)CCCC=CCCC[C@@](C)(C(=O)N[C@@H](C)C(=O)N[C@@H](CCCCN)C(=O)N[C@@H](CCCCN)C(N)=O)NC(=O)[C@H](CCC(=O)O)NC1=O [compound 30] (H-G[S5]GK[Phe(4-CF3)][S5]HKKKK[Phe(4-CF3)]GKA[S5]VVE[S5]AKK-NH2; staple 2-6, 16-20) | 4 µg/mL | 2 µg/mL | 17 µg/mL (≈ 6.18 µM) | 2 µg/mL | 4 µg/mL | 32 µg/mL | –
CC(C)[C@@H]1NC(=O)[C@@](C)(NC(=O)[C@H](C)NC(=O)[C@H](CCCCN)NC(=O)CNC(=O)[C@H](Cc2ccccc2)NC(=O)[C@H](CCCCN)NC(=O)[C@H](CCCCN)NC(=O)[C@H](CN)NC(=O)[C@H](CCCCN)NC(=O)[C@H](CCCCN)NC(=O)[C@]2(C)CCCC=CCCC[C@](C)(NC(=O)CN)C(=O)NCC(=O)N[C@@H](CCCCN)C(=O)N[C@@H](Cc3ccccc3)C(=O)N2)CCCC=CCCC[C@@](C)(C(=O)N[C@@H](C)C(=O)N[C@@H](CCCCN)C(=O)N[C@@H](CCCCN)C(=O)NCC(=O)NCC(=O)N[C@@H](CCC(=O)O)C(N)=O)NC(=O)[C@H](CCC(=O)O)NC(=O)CNC1=O [compound 81] (H-G[S5]GKF[S5]KK[Dap]KKFGKA[S5]VGE[S5]AKKGGE-NH2; staple 2-6, 16-20) | 16 µg/mL | 8 µg/mL | – | 4 µg/mL | 64 µg/mL | >64 µg/mL | > 200 µg/mL

The next lines start with results.

Minimum Inhibitory Concentration (MIC) P. aeruginosa (P. aeruginosa) | Minimum Inhibitory Concentration (MIC) E. coli (E. coli) | IC50 at 90 min (in vitro [1]) | Minimum Inhibitory Concentration (MIC) A. baumannii (A. baumannii) | Minimum Inhibitory Concentration (MIC) K. pneumoniae (K. pneumoniae) | Minimum Inhibitory Concentration (MIC) S. aureus (S. aureus) | SMILES | IC50 at 48 hours (in vitro [2])
2 µg/mL | 2 µg/mL | 117 µg/mL (≈ 46.1 µM) | 2 µg/mL | 4 µg/mL | >64 µg/mL | CC(C)[C@@H]1NC(=O)[C@@](C)(NC(=O)[C@H](C)NC(=O)[C@H](CCCCN)NC(=O)CNC(=O)[C@H](Cc2ccccc2)NC(=O)[C@H](CCCCN)NC(=O)[C@H](CCCCN)NC(=O)[C@H](CCCCN)NC(=O)[C@H](CCN)NC(=O)[C@H](CCCCN)NC(=O)[C@]2(C)CCCC=CCCC[C@](C)(NC(=O)CN)C(=O)NCC(=O)N[C@@H](CCCCN)C(=O)N[C@@H](Cc3ccccc3)C(=O)N2)CCCC=CCCC[C@@](C)(C(=O)N[C@@H](C)C(=O)N[C@@H](CCCCN)C(=O)N[C@@H](CCCCN)C(N)=O)NC(=O)[C@H](CCC(=O)O)NC(=O)CNC1=O [compound 38] (H-G[S5]GKF[S5]K[Dab]KKKFGKA[S5]VGE[S5]AKK-NH2; staple 2-6, 16-20) | –
2 µg/mL | 2 µg/mL | 113 µg/mL (≈ 44.6 µM) | 2 µg/mL | 4 µg/mL | >64 µg/mL | CC(C)[C@@H]1NC(=O)[C@@](C)(NC(=O)[C@H](C)NC(=O)[C@H](CCCCN)NC(=O)CNC(=O)[C@H](Cc2ccccc2)NC(=O)[C@H](CCCCN)NC(=O)[C@H](CCCCN)NC(=O)[C@H](CCCCN)NC(=O)[C@H](CCCCN)NC(=O)[C@H](CCCCN)NC(=O)[C@]2(C)CCCC=CCCC[C@](C)(NC(=O)CN)C(=O)NCC(=O)N[C@@H](CCN)C(=O)N[C@@H](Cc3ccccc3)C(=O)N2)CCCC=CCCC[C@@](C)(C(=O)N[C@@H](C)C(=O)N[C@@H](CCCCN)C(=O)N[C@@H](CCCCN)C(N)=O)NC(=O)[C@H](CCC(=O)O)NC(=O)CNC1=O [compound 37] (H-G[S5]G[Dab]F[S5]KKKKKFGKA[S5]VGE[S5]AKK-NH2; staple 2-6, 16-20) | –
4 µg/mL | 8 µg/mL | – | 8 µg/mL | >64 µg/mL | >64 µg/mL | CC(C)[C@@H]1NC(=O)[C@@](C)(NC(=O)[C@H](C)NC(=O)[C@H](CCCCN)NC(=O)CNC(=O)[C@H](Cc2ccccc2)NC(=O)[C@H](CCCCN)NC(=O)[C@H](CCCCN)NC(=O)[C@H](CCCCN)NC(=O)[C@H](CCCCN)NC(=O)[C@H](CN)NC(=O)[C@]2(C)CCCC=CCCC[C@](C)(NC(=O)CN)C(=O)NCC(=O)N[C@@H](CCCCN)C(=O)N[C@@H](Cc3ccccc3)C(=O)N2)CCCC=CCCC[C@@](C)(C(=O)N[C@@H](C)C(=O)N[C@@H](CCCCN)C(=O)N[C@@H](CCCCN)C(=O)NCC(=O)NCC(=O)N[C@@H](CCC(=O)O)C(N)=O)NC(=O)[C@H](CCC(=O)O)NC(=O)CNC1=O [compound 80] (H-G[S5]GKF[S5][Dap]KKKKFGKA[S5]VGE[S5]AKKGGE-NH2; staple 2-6, 16-20) | > 200 µg/mL
2 µg/mL | 4 µg/mL | – | 1 µg/mL | 64 µg/mL | >64 µg/mL | CC(C)[C@@H]1NC(=O)[C@@](C)(NC(=O)[C@H](C)NC(=O)[C@H](CCCCN)NC(=O)CNC(=O)[C@H](Cc2ccccc2)NC(=O)[C@H](CCCCN)NC(=O)[C@H](CCCCN)NC(=O)[C@H](CN)NC(=O)[C@H](CCCCN)NC(=O)[C@H](CN)NC(=O)[C@]2(C)CCCC=CCCC[C@](C)(NC(=O)CN)C(=O)NCC(=O)N[C@@H](CCCCN)C(=O)N[C@@H](Cc3ccccc3)C(=O)N2)CCCC=CCCC[C@@](C)(C(=O)N[C@@H](C)C(=O)N[C@@H](CCCCN)C(=O)N[C@@H](CCCCN)C(N)=O)NC(=O)[C@H](CCC(=O)O)NC(=O)CNC1=O [compound 82] (H-G[S5]GKF[S5][Dap]K[Dap]KKFGKA[S5]VGE[S5]AKK-NH2; staple 2-6, 16-20) | 190 µg/mL (≈ 76.6 µM)
1 µg/mL | 2 µg/mL | – | 1 µg/mL | 32 µg/mL | 64 µg/mL | CC(C)[C@@H]1NC(=O)[C@@](C)(NC(=O)[C@H](C)NC(=O)[C@H](CCCCN)NC(=O)CNC(=O)[C@H](Cc2ccccc2)NC(=O)[C@H](CCCCN)NC(=O)[C@H](CCCCN)NC(=O)[C@H](CCCCN)NC(=O)[C@H](CCCCN)NC(=O)[C@H](CN)NC(=O)[C@]2(C)CCCC=CCCC[C@](C)(NC(=O)CN)C(=O)NCC(=O)N[C@@H](CCCCN)C(=O)N[C@@H](Cc3ccccc3)C(=O)N2)CCCC=CCCC[C@@](C)(C(=O)N[C@@H](CO)C(=O)N[C@@H](CCCCN)C(=O)N[C@@H](CCCCN)C(N)=O)NC(=O)[C@H](CCC(=O)O)NC(=O)CNC1=O [compound 89] (H-G[S5]GKF[S5][Dap]KKKKFGKA[S5]VGE[S5]SKK-NH2; staple 2-6, 16-20) | 199 µg/mL (≈ 78.4 µM)
